Results reported in patent US4563468A, “Chemotherapeutic agents” (Burroughs Wellcome Co., priority 1979, dated 1986).

Tests used:
rhinovirus [1] = experiment: plaque reduction (PR) test; format: cell-based; conditions: Enterovirus; 50% of the effective dose estimated from dose response curve; plaque numbers as percentages of a control; monolayer cell culture, compound in nutrient agarose overlay; read-out: PR(ED50)
Method: Activity may be detected by the plaque inhibition (PI) test and measured by the plaque reduction (PR) test. Both assays involve the formation of a monolayer cell culture in a petri dish followed by infection with a virus suspension, and then overlaying the culture with nutrient agarose in the form of a gel. This gel ensures that there is no spread of virus throughout the culture and thus areas of localised cell destruction or plaques are formed. Detectable activity is measured with the plaque reduction assay. A range of concentrations of compound of known molarity are incorporated in the nutrient agarose overlay. Plaque suppression is proportional to compound concentration. Plaque numbers are expressed as percentages of a control, and a dose response curve may be drawn. From this curve 50% of the effective dose (ED50) may be estimated.

rhinovirus [2] = experiment: Intranasal Administration-Simulation in vitro (plaque inhibition, compound on petri dish lid); format: cell-based; conditions: 1 μg in ethanol applied to petri dish lids, ethanol evaporated; cell sheet covered with agarose gel
Source text: Activity may be detected by the plaque inhibition (PI) test and measured by the plaque reduction (PR) test. Both assays involve the formation of a monolayer cell culture in a petri dish followed by infection with a virus suspension, and then overlaying the culture with nutrient agarose in the form of a gel. This gel ensures that there is no spread of virus throughout the culture and thus areas of localised cell destruction or plaques are formed. In the plaque inhibition test a filter paper disc which holds 0.01 ml when impregnated with a solution of compound is placed on top of the agarose gel. The compound may then diffuse throughout the gel so that its greatest concentration will be around the disc and its lowest concentration towards the periphery of the petri dish. The efficacy of the compound may be detected by observing the zone of inhibition of plaque formation. Petri dishes were prepared, as for the plaque inhibition test and the confluent sheet of cells was covered with a layer of agarose gel. The compound, 2-(3-pyridyl)chroman (1 μg) was dissolved in ethanol, and applied to the lids of the petri dishes. When the ethanol had evaporated, leaving the compound spread over the inside of the lids, these were replaced on the petri dishes.

Compound | EC50 (rhinovirus [1]) [nM] | inhibition of plaque formulation (rhinovirus [2])
Clc1ccc2c(c1)CCC(c1cccnc1)O2 (stereo not shown) [6-chloro-2-(3-pyridyl)chroman] | 42 | 
c1cncc(C2CCc3ccccc3O2)c1 (stereo not shown) [2-(3-pyridyl)chroman] | 390 | total inhibition
[O-][n+]1cccc(C2CCc3ccccc3O2)c1 (racemic) [2-(3-pyridyl)chroman N--oxide, 2-(3-pyridyl)chroman N-oxide] | 1100 | 
